ChEMBL document CHEMBL1201862, “PubChem BioAssay data set” (2004)
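Compound exposure: 48 hours, 5 concentrations, 96-well plates. Abbreviation: GI50, concentration required for 50% inhibition of growth.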 Active and inactive are the calls of the source. Cut-off read from the data, not from the text of the source: active = GI50 up to about 1.1 µM and inactive = higher.

Tests used:
Assay in all cases: NCI anticancer screen, dose series, 48 h
NCI-H23 = test system: NCI-H23
SNB-19 = test system: SNB-19
HT-29 = test system: HT-29
OVCAR-3 = test system: OVCAR-3
SF-295 = test system: SF-295
MDA-MB-231 = test system: MDA-MB-231
RPMI-8226 = test system: RPMI-8226
U-251 = test system: U-251
SW-620 = test system: SW-620
PC-3 = test system: PC-3
MDA-N = test system: MDA-N
Malme-3M = test system: Malme-3M
MOLT-4 = test system: MOLT-4
SNB-78 = test system: SNB-78
DMS-114 = test system: DMS-114
XF498 = test system: XF498
DMS-273 = test system: DMS-273
KM-20L2 = test system: KM-20L2
BT-549 = test system: BT-549
T47D = test system: T47D

Compound	GI50 (NCI-H23)	GI50 (SNB-19)	GI50 (HT-29)	GI50 (OVCAR-3)	GI50 (SF-295)	GI50 (MDA-MB-231)	GI50 (RPMI-8226)	GI50 (U-251)	GI50 (SW-620)	GI50 (PC-3)	GI50 (MDA-N)	GI50 (Malme-3M)	GI50 (MOLT-4)	GI50 (SNB-78)	GI50 (DMS-114)	GI50 (XF498)	GI50 (DMS-273)	GI50 (KM-20L2)	GI50 (BT-549)	GI50 (T47D)
CSC1=N/C(=C\c2ccccc2)C(=O)N1CN1CCCCC1	76.6 µM (inactive)	46.1 µM (inactive)	22.5 µM (inactive)	> 100 µM (inactive)	> 100 µM (inactive)	86.3 µM (inactive)	27.4 µM (inactive)	72.6 µM (inactive)	44.4 µM (inactive)	55.5 µM (inactive)	88.3 µM (inactive)	54.5 µM (inactive)	37.5 µM (inactive)	–	–	–	–	–	–	–
Cc1c(-c2cc3n(n2)C(c2cccs2)C(C#N)=C(c2ccccc2)N3)c(=O)n(-c2ccccc2)n1C (stereo unspecified)	> 89.5 µM (inactive)	> 100 µM (inactive)	43.7 µM (inactive)	> 100 µM (inactive)	> 74.3 µM (inactive)	–	–	32.7 µM (inactive)	> 100 µM (inactive)	–	–	> 100 µM (inactive)	> 72.6 µM (inactive)	> 100 µM (inactive)	77.3 µM (inactive)	> 79.4 µM (inactive)	> 91.6 µM (inactive)	24.9 µM (inactive)	–	–
CNc1cc2c(c3ccccc13)C(CCl)CN2C(=O)c1cc2cc(OC)c(OC)c(OC)c2[nH]1 (stereo unspecified)	0.000465 µM (active)	0.0124 µM (active)	0.0013 µM (active)	0.0226 µM (active)	0.00155 µM (active)	0.0074 µM (active)	0.00455 µM (active)	0.00191 µM (active)	0.00144 µM (active)	0.00214 µM (active)	0.00243 µM (active)	< 0.01 µM (active)	0.00053 µM (active)	–	–	–	–	–	0.00881 µM (active)	0.00322 µM (active)
Cc1ccc2nc(C(C)C)c(=O)[nH]c2c1	> 100 µM (inactive)	> 100 µM (inactive)	> 100 µM (inactive)	18.8 µM (inactive)	71 µM (inactive)	> 100 µM (inactive)	> 100 µM (inactive)	47 µM (inactive)	> 100 µM (inactive)	19.9 µM (inactive)	> 100 µM (inactive)	> 100 µM (inactive)	> 100 µM (inactive)	–	–	–	–	–	> 100 µM (inactive)	> 100 µM (inactive)
O=c1[nH]c2ccc([N+](=O)[O-])cc2nc1/C(=N/Nc1ccccc1)C(O)c1ccco1 (stereo unspecified)	65.3 µM (inactive)	> 100 µM (inactive)	66.8 µM (inactive)	> 100 µM (inactive)	83.4 µM (inactive)	–	34.7 µM (inactive)	> 100 µM (inactive)	39.4 µM (inactive)	–	–	63.8 µM (inactive)	38.5 µM (inactive)	> 100 µM (inactive)	18.9 µM (inactive)	> 100 µM (inactive)	42.4 µM (inactive)	41.1 µM (inactive)	–	–
CCOP(=O)(OCC)C1CC(C)OC1=O (stereo unspecified)	> 100 µM (inactive)	> 100 µM (inactive)	> 100 µM (inactive)	> 100 µM (inactive)	> 100 µM (inactive)	–	> 100 µM (inactive)	> 100 µM (inactive)	> 100 µM (inactive)	–	–	> 100 µM (inactive)	> 100 µM (inactive)	> 100 µM (inactive)	> 100 µM (inactive)	> 100 µM (inactive)	> 100 µM (inactive)	> 100 µM (inactive)	–	–
O=C(N/N=C/c1cc(-c2ccccc2Cl)c(-c2ccccc2Cl)o1)c1ccncc1	> 100 µM (inactive)	> 100 µM (inactive)	80.5 µM (inactive)	43.9 µM (inactive)	> 100 µM (inactive)	–	23.6 µM (inactive)	–	> 100 µM (inactive)	–	–	> 100 µM (inactive)	–	–	87.9 µM (inactive)	> 100 µM (inactive)	–	> 100 µM (inactive)	–	–
C/C(=N\NC(=O)c1ccncc1)c1cccc(C(F)(F)F)c1	> 10 µM (inactive)	–	> 10 µM (inactive)	–	–	> 10 µM (inactive)	> 10 µM (inactive)	> 10 µM (inactive)	> 10 µM (inactive)	–	> 10 µM (inactive)	> 10 µM (inactive)	> 10 µM (inactive)	–	–	–	–	–	> 10 µM (inactive)	> 10 µM (inactive)
CCN(CC)CCSc1nc(-c2c[nH]c3nc(C)ccc3c2=O)n[nH]1	> 100 µM (inactive)	> 100 µM (inactive)	> 100 µM (inactive)	> 100 µM (inactive)	> 100 µM (inactive)	> 100 µM (inactive)	> 100 µM (inactive)	> 100 µM (inactive)	> 100 µM (inactive)	> 100 µM (inactive)	> 100 µM (inactive)	> 100 µM (inactive)	> 100 µM (inactive)	–	–	–	–	–	> 100 µM (inactive)	> 100 µM (inactive)
COc1c(C(=O)/C(=N/Nc2ccccc2)C(C)=O)c(O)c(OC)c2occc12	33.3 µM (inactive)	36.1 µM (inactive)	37.3 µM (inactive)	67.9 µM (inactive)	48.9 µM (inactive)	18.5 µM (inactive)	17.2 µM (inactive)	59.7 µM (inactive)	77.8 µM (inactive)	27 µM (inactive)	32.1 µM (inactive)	24.5 µM (inactive)	48.3 µM (inactive)	–	–	–	–	–	–	19.3 µM (inactive)
N=C(N)c1csc([C@@H]2O[C@H](CO)[C@@H](O)[C@H]2O)n1	> 100 µM (inactive)	> 100 µM (inactive)	–	–	> 100 µM (inactive)	–	> 100 µM (inactive)	> 100 µM (inactive)	> 100 µM (inactive)	–	–	> 100 µM (inactive)	> 100 µM (inactive)	> 100 µM (inactive)	–	> 100 µM (inactive)	> 100 µM (inactive)	–	–	–
OCc1cc2ccncc2c2c1[nH]c1ccccc12	7.26 µM (inactive)	6.49 µM (inactive)	4.58 µM (inactive)	–	5.81 µM (inactive)	–	6.31 µM (inactive)	6.25 µM (inactive)	3.29 µM (inactive)	–	–	6.95 µM (inactive)	3.66 µM (inactive)	13.2 µM (inactive)	6.38 µM (inactive)	5.25 µM (inactive)	4.04 µM (inactive)	–	–	–
CC1=NN(C(=O)c2ccccc2)C(=O)C1/N=N/c1ccccc1C(=O)O (stereo unspecified)	3.81 µM (inactive)	5.75 µM (inactive)	52.1 µM (inactive)	4.71 µM (inactive)	4.1 µM (inactive)	–	4.36 µM (inactive)	4.79 µM (inactive)	16.8 µM (inactive)	–	–	10.9 µM (inactive)	4.09 µM (inactive)	–	4.08 µM (inactive)	2.72 µM (inactive)	3.05 µM (inactive)	63.1 µM (inactive)	–	–
Cc1c2cc[n+](C)cc2c(COC2OC(CO)C(O)C2O)c2c3ccccc3n(C)c12 (stereo unspecified)	58.3 µM (inactive)	14.5 µM (inactive)	> 100 µM (inactive)	> 100 µM (inactive)	57 µM (inactive)	–	99.5 µM (inactive)	48.6 µM (inactive)	> 100 µM (inactive)	–	–	62.1 µM (inactive)	45.5 µM (inactive)	83.9 µM (inactive)	46.3 µM (inactive)	50.7 µM (inactive)	> 89.9 µM (inactive)	31.6 µM (inactive)	–	–
N#C/C(=C/NC(=S)c1ccncc1)C(N)=O	> 100 µM (inactive)	> 100 µM (inactive)	> 100 µM (inactive)	> 100 µM (inactive)	> 100 µM (inactive)	> 100 µM (inactive)	–	> 100 µM (inactive)	> 100 µM (inactive)	–	> 100 µM (inactive)	–	> 100 µM (inactive)	–	–	–	–	–	> 100 µM (inactive)	> 100 µM (inactive)
O=S(=O)(/N=C(\NO)Nc1ccc(Cl)cc1)c1ccc(-c2ccccn2)s1	37.3 µM (inactive)	> 100 µM (inactive)	82.8 µM (inactive)	4.03 µM (inactive)	52.1 µM (inactive)	49.7 µM (inactive)	–	44.4 µM (inactive)	48.1 µM (inactive)	38.8 µM (inactive)	24.2 µM (inactive)	19.6 µM (inactive)	40.1 µM (inactive)	–	–	–	–	–	19.6 µM (inactive)	62.4 µM (inactive)
O=C1CC2(CCC(O)(c3ccccc3)C(C(=O)c3ccccc3)C2)C(=O)c2ccccc2N1 (stereo unspecified)	> 100 µM (inactive)	> 100 µM (inactive)	> 100 µM (inactive)	> 100 µM (inactive)	> 100 µM (inactive)	> 100 µM (inactive)	–	> 100 µM (inactive)	> 100 µM (inactive)	> 100 µM (inactive)	> 100 µM (inactive)	> 100 µM (inactive)	> 100 µM (inactive)	–	–	–	–	–	> 100 µM (inactive)	> 100 µM (inactive)
CCc1c(C)c(C#N)c(=S)n(C2OC(COC(C)=O)C(OC(C)=O)C(OC(C)=O)C2OC(C)=O)c1-c1ccccc1 (stereo unspecified)	> 31.6 µM (inactive)	> 10 µM (inactive)	> 31.6 µM (inactive)	> 31.6 µM (inactive)	16.2 µM (inactive)	28.4 µM (inactive)	82 µM (inactive)	17.3 µM (inactive)	> 100 µM (inactive)	> 10 µM (inactive)	> 31.6 µM (inactive)	> 31.6 µM (inactive)	> 31.6 µM (inactive)	–	–	–	–	–	52.1 µM (inactive)	> 31.6 µM (inactive)
Cc1nnc2n1-c1ccccc1N(Cc1ccccc1)CC2	60 µM (inactive)	> 100 µM (inactive)	40.1 µM (inactive)	39.6 µM (inactive)	75 µM (inactive)	> 100 µM (inactive)	11.4 µM (inactive)	50 µM (inactive)	17.2 µM (inactive)	49.8 µM (inactive)	46.2 µM (inactive)	85.1 µM (inactive)	23.8 µM (inactive)	–	–	–	–	–	22.1 µM (inactive)	41.2 µM (inactive)
